Here are results for 1 compound from patent publication US6667037B1, “Isolated peptides which bind to HLA-B35 molecules, larger peptides which contain these, nucleic acid molecules encoding peptides, and uses thereof” (Ludwig Institute for Cancer Research, priority 1998, dated 2003).

For assay [1], the system named is LG2-EBV cells (express HLA-B*3503). The experiment in a line: 51Cr release assay: lysis of peptide-pulsed LG2-EBV cells by CTL 35-24. It is filed as cell-based, human. To be noted: LG2-EBV cells (HLA-B*3503). The source says: (§1) The same TNF assay as is described in example 2, supra, was used, except fragments of tyrosinase cDNA, rather than complete cDNA molecules, were used. Three fragments were positive, and these corresponded to nucleotides 1-1086, 427-1134, and 703-1134 of the coding region of tyrosinase cDNA. A fragment corresponding to position 574-831 was negative, leading to the conclusion that nucleotides 831-1086 encoded for the presented antigen. These correspond to amino acids 270-362 of tyrosinase, whose amino acid sequence is known. This amino acid sequence was compared to known peptides, which bind to HLA-B*3501, and its binding motif, as described by Rammensee, et al., supra, incorporated by reference. This reference describes a binding motif for HLA-B35 which is a nonapeptide, where Pro is found at position 2, and Tyr is found at position 9. For decapeptides, Ramensee, et al, gives P2 and Y10 as anchors. HLA-B*3501 was used because no information was found in the art for HLA-B*3503. Ramensee et al. also gives Phe, Met, Leu, and Ile as auxiliary anchors for P9. The peptide defined by amino acid sequence LPSSADVEF (SEQ ID NO: 1) satisfies these requisites, and is found at amino acids 312-320 of tyrosinase. […] The ^51Cr release was measured after 3.5 hours.

The subject of assay [2] is HA7-EBV cells (express HLA B*3501). The experiment in a line: 51Cr release assay: lysis of peptide-pulsed HA7-EBV cells by CTL 35-24. The assay is classed as cell-based, human. To be noted: HA7-EBV cells (HLA B*3501).
Source text: as §1

Setting [3] is: varying concentrations of peptide.

Where a SMILES comes first, the peptide text is derived from it.

On to `CC(C)C[C@H](N)C(=O)N1CCC[C@H]1C(=O)N[C@@H](CO)C(=O)N[C@@H](CO)C(=O)N[C@@H](C)C(=O)N[C@@H](CC(=O)O)C(=O)N[C@H](C(=O)N[C@@H](CCC(=O)O)C(=O)N[C@@H](Cc1ccccc1)C(=O)O)C(C)C` [SEQ ID NO: 1, LPSSADVEF] (H-LPSSADVEF-OH; N-terminus and C-terminus assumed), for which the EC50 in assay [1] (30 minutes with peptide, then CTL 35-24, effector:target 5:1, 51Cr release after 3.5 hours, read-out: dose of peptide giving half maximal lysis) is 1 nM; in assay [2] (30 minutes with peptide, then CTL 35-24, 51Cr release after 3.5 hours, read-out: dose of peptide giving half maximal lysis), about 10 nM. For the same compound, the “lysis of peptide-pulsed cells by CTL 35-24” value in assay [1] (setting [3]) and in assay [2] (setting [3]) was “provoked lysis” each time.
